Assay results from US20240246980A1, “MODULATORS OF MAS-RELATED G-PROTEIN RECEPTOR D AND RELATED PRODUCTS AND METHODS” (Escient Pharmaceuticals, Inc., priority 2022, published 2024).

Target: human MRGPRD (Homo sapiens, UniProt Q8TDS7)
Test: MRGPRD antagonist activity, IP-One HTRF assay in CHO cells stably expressing human MRGPRD (versus 100 μM β-Alanine agonist)
Assay type: cell-based
Protocol: Chinese Hamster Ovary (CHO) cells stably expressing human MRGPRD (Eurofins, San Diego CA) were plated in a 384-well plate at 20,000 cells per well in 12 μL of Optimem (Fisher Scientific 11-058-021). Plates were kept in the incubator at 37° C. overnight. Antagonists were solubilized at a concentration of 10 mM in DMSO, and the agonists were solubilized to stock concentrations of either 50 mM in H2O (β-Alanine) or 10 mM in DMSO (all others) and then diluted in assay buffer (final concentrations of 5.7 mM Tris-HCl, 43 mM NaCl, 50 mM LiCl, pH=8). The concentration of DMSO was normalized across the plate. Antagonists were added to the plate using a Tecan D300 Digital Dispenser at nanoliter/picoliter volumes and 2 μL of agonists in assay buffer were added to each well for a final assay volume of 14 μL. Plates were covered and incubated for 1 h at 37° C. and then for 1 h at room temperature. IP-1 standards and HTRF detection reagents were added according to an IP-One-Gq Kit purchased from Cisbio (part number 62IPAPEJ) and incubated in the dark for 1 h at room temperature. Assay plates were read on either a Molecular Devices SpectraMax iD5 plate reader or a BMG ClarioStar plate reader. The HTRF ratio was calculated form the raw data and graphed using GraphPad Prism to calculate IC50 values. Data are expressed as average IC50 values and average percent antagonism calculated as a percent of the maximum efficacy response. For these studies, the variability of the data was assessed by determining the standard error of mean (SEM).
The activity ranges are denoted as follows: “+++++” denotes antagonist activity <100 nM; “++++” denotes antagonist activity between 100 and 500 nM; “+++” denotes activity between 500 and 1000 nM; “++” denotes activity between 1000 and 3000 nM; and “+” denotes activity >3000 nM.

human MRGPRD, sequence (Q8TDS7 whole entry): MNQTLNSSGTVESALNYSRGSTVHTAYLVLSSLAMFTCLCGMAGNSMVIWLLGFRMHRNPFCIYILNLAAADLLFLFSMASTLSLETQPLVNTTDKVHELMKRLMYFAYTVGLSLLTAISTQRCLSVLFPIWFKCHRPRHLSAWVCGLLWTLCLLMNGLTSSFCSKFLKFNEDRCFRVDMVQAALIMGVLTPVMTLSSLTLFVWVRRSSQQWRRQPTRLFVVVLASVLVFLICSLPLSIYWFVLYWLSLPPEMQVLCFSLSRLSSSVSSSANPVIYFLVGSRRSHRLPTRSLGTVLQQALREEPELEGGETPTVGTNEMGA

| Compound | IC50 [nM] |
| --- | --- |
| COc1cccc(-c2nc(C3CCCN(C(=O)Nc4ccc(OC)c(OC)c4)C3)n3ccccc23)c1 (stereo not drawn) [Compound 4-1] | 100 to 500 |
| COc1cccc(-c2nc(C3CCCN(C(=O)Nc4ccccc4F)C3)n3ccc(C)cc23)c1 (stereo not drawn) [Compound 17-2] | 500 to 1000 |
| COc1cccc(C(=O)N2CCCC(c3nc(-c4cccc(OC)c4)c4cccc(OC)n34)C2)c1 (stereo not drawn) [Compound 14-3] | > 3000 |
| CN(C)c1ccc(NC(=O)N2CCC[C@@H](c3nc(-c4cnn(Cc5ccccc5)c4)c4ccccn34)C2)cc1 [Compound 10-52] | 1000 to 3000 |
| CN(C)c1ccc(NC(=O)N2CCC[C@@H](c3nc(C4CCCCC4)c4ccccn34)C2)cc1 [Compound 10-45] | 100 to 500 |
| COc1cccc(-c2nc([C@H]3CCCN(C(=O)c4cccc(F)c4)C3)n3ccccc23)c1 [Compound 12-15] | 100 to 500 |
| COc1cccc(-c2nc(C3CCCN(C(=O)Nc4ccc(F)cc4)C3)n3ccccc23)c1 (stereo not drawn) [Compound 3-1] | 100 to 500 |
| COc1cccc(-c2nc(C3CCCN(C(=O)c4ccc(C)cc4F)C3)n3ccccc23)c1 (stereo not drawn) [Compound 12-7] | 500 to 1000 |
| COCCCc1nc([C@@H]2CCCN(C(=O)Nc3ccc(N(C)C)cc3)C2)n2ccccc12 [Compound 10-41] | 1000 to 3000 |
| COc1cccc(-c2nc(C3CCCN(C(=O)Nc4ccccc4Cl)C3)n3ccccc23)c1 (stereo not drawn) [Compound 3-7] | 500 to 1000 |
| COc1cccc(-c2nc([C@@H]3CCCN(C(=O)Nc4ccccc4OC(F)(F)F)C3)n3ccccc23)c1 [Compound 5-13] | 500 to 1000 |
| COc1cccc(-c2nn(C3CCCN(C(=O)Nc4ccc(N(C)C)cc4)C3)c3ccccc23)c1 (stereo not drawn) [Compound 5-6] | < 100 |
| CN(C)c1ccc(NC(=O)N2CCC[C@@H](c3nc(-c4ccccc4CC#N)c4ccccn34)C2)cc1 [Compound 10-65] | 500 to 1000 |
| COc1cccc(-c2nc([C@@H]3CCCN(C(=O)NCCCN(C)C)C3)n3ccccc23)c1 [Compound 1-27] | 500 to 1000 |
| COc1cccc(-c2nc([C@@H]3CCCN(C(=O)Nc4ccccc4C(=O)N(C)C)C3)n3ccccc23)c1 [Compound 5-33] | 1000 to 3000 |
| COc1cccc(-c2nc(C3CCCN(C(=O)Nc4ccccc4F)C3)n3c(C)cccc23)c1 (stereo not drawn) [Compound 17-3] | 100 to 500 |
| COc1cccc(-c2nc(C3CN(C(=O)Nc4cccc(N(C)C)c4)C3)n3ccccc23)c1 [Compound 23-1, N-(3-(dimethylamino)phenyl)-3-(1-(3-methoxyphenyl)imidazo[1,5-a]pyridin-3-yl)azetidine-1-carboxamide] | > 3000 |
| COc1cccc(-c2nc([C@@H]3CCCN(C(=O)NC4CCN(C)CC4)C3)n3ccccc23)c1 [Compound 5-64] | 500 to 1000 |
| COc1cccc(-c2nc([C@@H]3CCCN(C(=O)Nc4ccc(N(C)C)cc4C)C3)n3ccccc23)c1 [Compound 1-8] | < 100 |

| Compound | IC50 [nM] |
| --- | --- |
| COc1cccc(-c2nc([C@@H]3CCCN(C(=O)Nc4ccc(C)c(C)c4)C3)n3ccccc23)c1 [Compound 1-10] | 100 to 500 |
| COc1cccc(-c2nc([C@@H]3CCCN(S(=O)(=O)Cc4ccc(F)cc4)C3)n3ccccc23)c1 [Compound 16-9] | < 100 |
| COc1cccc(-c2nc(C3CCCN(C(=O)c4ccc(F)cc4F)C3)n3ccccc23)c1 (stereo not drawn) [Compound 12-11] | 500 to 1000 |
| COc1ccc(CNC(=O)N2CCC[C@@H](c3nc(-c4cccc(OC)c4)c4ccccn34)C2)cc1 [Compound 5-58] | < 100 |
| COc1ccc(-c2nc([C@H]3CCCN(C(=O)Nc4ccc(N(C)C)cc4)C3)n3ccccc23)cc1 [Compound 10-48] | 1000 to 3000 |
| COc1cccc(-c2nc(-c3cccc(C(=O)Nc4ccc(N(C)C)cc4)c3)n3ccccc23)c1 [Compound 8-2] | < 100 |
| COc1cccc(-c2nc([C@@H]3CCCN(C(=O)Nc4ccc(N(C)C)cc4)C3)n3ccccc23)c1 [Compound 1-2, (R)—N-(4-(dimethylamino)phenyl)-3-(1-(3-methoxyphenyl)imidazo[1,5-a]pyridin-3-yl)piperidine-1-carboxamide] | < 100 |
| COc1cccc(-c2nn([C@H]3CCCN(C(=O)Nc4ccc(N(C)C)cc4)C3)c3ncccc23)c1 [Compound 20-4] | 1000 to 3000 |
| COc1cccc(-c2nc([C@@H]3CCCN(C(=O)Nc4ccc(CC#N)cc4)C3)n3ccccc23)c1 [Compound 5-63] | < 100 |
| COc1cccc(-c2nc(C3CCCN(C(=O)Nc4cc(OC)c(OC)c(OC)c4)C3)n3ccccc23)c1 (stereo not drawn) [Compound 4-2, 3-(1-(3-methoxyphenyl)imidazo[1,5-a]pyridin-3-yl)-N-(3,4,5-trimethoxyphenyl)piperidine-1-carboxamide] | < 100 |
| CNC(=O)N1CCC[C@@H](c2nc(-c3cccc(OC)c3)c3ccccn23)C1 [Compound 2-1, (R)-3-(1-(3-methoxyphenyl)imidazo[1,5-a]pyridin-3-yl)-N-methylpiperidine-1-carboxamide] | > 3000 |
| COc1cccc(-c2nc(C3CCCN(C(=O)N(C)c4ccc(F)cc4)C3)n3ccccc23)c1 (stereo not drawn) [Compound 5-2] | 1000 to 3000 |
| COc1cccc(-c2nc(C3CCCN(C(=O)Nc4ccc(C)cc4F)C3)n3ccccc23)c1 (stereo not drawn) [Compound 5-3] | 500 to 1000 |
| COc1cccc(-c2nc([C@@H]3CCCN(C(=O)Nc4ccc5c(cnn5C)c4)C3)n3ccccc23)c1 [Compound 1-32] | < 100 |
| COc1cccc(-c2nn([C@@H]3CCCN(C(=O)Nc4ccc(N(C)C)cc4)C3)c3ncccc23)c1 [Compound 20-1, (R)—N-(4-(dimethylamino)phenyl)-3-(3-(3-methoxyphenyl)-1H-pyrazolo[3,4-b]pyridin-1-yl)piperidine-1-carboxamide] | < 100 |
| CC(C)Oc1cccc(-c2nc([C@@H]3CCCN(C(=O)Nc4ccc(N(C)C)cc4)C3)n3ccccc23)c1 [Compound 10-13] | 500 to 1000 |
| COc1cccc(-c2nc([C@H]3CCCN3C(=O)Nc3ccc(N(C)C)cc3)n3ccccc23)c1 [Compound 21-6] | > 3000 |
| COc1cccc(-c2nc(C3CCCN(S(=O)(=O)Cc4ccccc4F)C3)n3ccccc23)c1 (stereo not drawn) [Compound 16-5] | > 3000 |
| COc1cccc(-c2nc([C@@H]3CCCN(C(=O)Nc4ccc(N5CCCC5)cc4)C3)n3ccccc23)c1 [Compound 1-1] | 100 to 500 |

| Compound | IC50 [nM] |
| --- | --- |
| COc1cccc(-c2nc(C3CCN(C(=O)Nc4cccc(N(C)C)c4)CC3)n3ccccc23)c1 [Compound 5-8] | 1000 to 3000 |
| COc1cccc(-c2nc([C@@H]3CCCN(C(=O)Nc4ccc(OC(F)(F)F)cc4)C3)n3ccccc23)c1 [Compound 5-21] | 500 to 1000 |
| COc1cccc(-c2nc([C@H]3CCCN(S(=O)(=O)Cc4ccc(F)cc4)C3)n3ccccc23)c1 [Compound 16-8] | 1000 to 3000 |
| COc1cccc(-c2nc(C3CCN(C(=O)Nc4ccc(N(C)C)cc4)CC3)n3ccccc23)c1 [Compound 5-9] | > 3000 |
| COc1cccc(-c2nc(C3CCCN(C(=O)NC4CC4)C3)n3ccccc23)c1 (stereo not drawn) [Compound 3-11] | > 3000 |
| COc1cccc(-c2nc(C3CCCN(C(=O)c4ccc(OC)c(OC)c4)C3)n3c(OC)cccc23)c1 (stereo not drawn) [Compound 14-5] | 100 to 500 |
| COc1cccc(-c2nc([C@@H]3CCCN(C(=O)Nc4ccc5cccnc5c4)C3)n3ccccc23)c1 [Compound 5-40] | < 100 |
| COc1cccc(-c2nc([C@@H]3CCCN(C(=O)NCc4ccc(N(C)C)cc4)C3)n3ccccc23)c1 [Compound 5-17] | < 100 |
| CN(C)c1ccc(NC(=O)N2CCC[C@@H](c3nc(-c4cccc5c4OCO5)c4ccccn34)C2)cc1 [Compound 10-51] | < 100 |
| COc1cccc(-c2nc([C@@H]3CCCN(C(=O)Nc4ccc5ccccc5c4)C3)n3ccccc23)c1 [Compound 1-31] | 100 to 500 |
| COc1cccc(-c2nn(C3CCCN(C(=O)Nc4cccc(N(C)C)c4)C3)c3ncccc23)c1 (stereo not drawn) [Compound 9-2] | < 100 |
| CCOc1ccccc1NC(=O)N1CCC[C@@H](c2nc(-c3cccc(OC)c3)c3ccccn23)C1 [Compound 5-14] | 100 to 500 |
| CN(C)c1ccc(NC(=O)N2CCC[C@@H](c3nc(-c4cccc(N(C)C)c4)c4ccccn34)C2)cc1 [Compound 10-6] | 100 to 500 |
| COc1cccc(-c2nc(C3CCCN(C(=O)Nc4ccc(N(C)C)cc4)C3)c3ccccn23)c1 (stereo not drawn) [Compound 26-1, N-(4-(dimethylamino)phenyl)-3-(3-(3-methoxyphenyl)imidazo[1,5-a]pyridin-1-yl)piperidine-1-carboxamide] | < 100 |
| CN(C)c1ccc(NC(=O)N2CCC[C@@H](c3nc(-c4cnn(C(F)F)c4)c4ccccn34)C2)cc1 [Compound 10-72] | 100 to 500 |
| COc1cccc(-c2nc([C@@H]3CCCN(C(=O)Nc4ccc(C(F)(F)F)cc4)C3)n3ccccc23)c1 [Compound 5-23] | 500 to 1000 |
| COCCNC(=O)N1CCC[C@@H](c2nc(-c3cccc(OC)c3)c3ccccn23)C1 [Compound 5-41] | 100 to 500 |
| COc1cccc(-c2nc([C@@H]3CCCN(C(=O)Nc4ccc5c(c4)CCC(C)(C)O5)C3)n3ccccc23)c1 [Compound 5-47] | < 100 |
| CCN(CC)c1ccc(NC(=O)N2CCC[C@@H](c3nc(-c4cccc(OC)c4)c4ccccn34)C2)cc1 [Compound 1-19] | < 100 |
